In publication PMC8550792, “Evolution of kinase polypharmacology across HSP90 drug discovery” (Cell Chemical Biology, 2021):

Legend:
Assay in all cases: biochemical
Assay type in all cases: biochemical
382 unique human kinases [1] = molecular target: T1, 382 unique human kinases (Homo sapiens, UniProt P53671); details: LIMK2, [ATP] 5 µM, compound 10 uM; for remaining activity at 10 µM: read-out: % Enzyme Activity (relative to DMSO controls)
T1 construct: purchased Reaction Biology (HotSpot contract assay)
T1 sequence (P53671 whole entry): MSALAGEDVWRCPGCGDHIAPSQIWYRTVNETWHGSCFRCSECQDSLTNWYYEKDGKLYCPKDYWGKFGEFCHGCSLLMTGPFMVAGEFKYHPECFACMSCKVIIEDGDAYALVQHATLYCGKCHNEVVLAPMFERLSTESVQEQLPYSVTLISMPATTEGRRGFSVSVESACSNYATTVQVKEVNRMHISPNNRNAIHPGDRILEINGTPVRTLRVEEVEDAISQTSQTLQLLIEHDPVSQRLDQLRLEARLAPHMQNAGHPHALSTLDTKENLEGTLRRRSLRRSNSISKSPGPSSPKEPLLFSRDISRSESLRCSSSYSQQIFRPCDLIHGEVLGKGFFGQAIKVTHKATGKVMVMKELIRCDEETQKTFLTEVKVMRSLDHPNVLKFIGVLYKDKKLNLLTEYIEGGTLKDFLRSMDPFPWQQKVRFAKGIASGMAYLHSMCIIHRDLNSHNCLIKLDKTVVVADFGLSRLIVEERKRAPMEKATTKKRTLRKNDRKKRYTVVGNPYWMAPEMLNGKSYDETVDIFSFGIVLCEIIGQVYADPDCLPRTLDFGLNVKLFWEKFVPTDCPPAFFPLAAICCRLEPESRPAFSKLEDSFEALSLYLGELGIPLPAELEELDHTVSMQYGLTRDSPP

382 unique human kinases [2] = molecular target: T2, 382 unique human kinases (Homo sapiens, UniProt Q16620); details: TRKB, [ATP] 50 µM, compound 10 uM; for remaining activity at 10 µM: read-out: % Enzyme Activity (relative to DMSO controls)
T2 construct: purchased Reaction Biology (HotSpot contract assay)
T2 sequence (Q16620 32-822): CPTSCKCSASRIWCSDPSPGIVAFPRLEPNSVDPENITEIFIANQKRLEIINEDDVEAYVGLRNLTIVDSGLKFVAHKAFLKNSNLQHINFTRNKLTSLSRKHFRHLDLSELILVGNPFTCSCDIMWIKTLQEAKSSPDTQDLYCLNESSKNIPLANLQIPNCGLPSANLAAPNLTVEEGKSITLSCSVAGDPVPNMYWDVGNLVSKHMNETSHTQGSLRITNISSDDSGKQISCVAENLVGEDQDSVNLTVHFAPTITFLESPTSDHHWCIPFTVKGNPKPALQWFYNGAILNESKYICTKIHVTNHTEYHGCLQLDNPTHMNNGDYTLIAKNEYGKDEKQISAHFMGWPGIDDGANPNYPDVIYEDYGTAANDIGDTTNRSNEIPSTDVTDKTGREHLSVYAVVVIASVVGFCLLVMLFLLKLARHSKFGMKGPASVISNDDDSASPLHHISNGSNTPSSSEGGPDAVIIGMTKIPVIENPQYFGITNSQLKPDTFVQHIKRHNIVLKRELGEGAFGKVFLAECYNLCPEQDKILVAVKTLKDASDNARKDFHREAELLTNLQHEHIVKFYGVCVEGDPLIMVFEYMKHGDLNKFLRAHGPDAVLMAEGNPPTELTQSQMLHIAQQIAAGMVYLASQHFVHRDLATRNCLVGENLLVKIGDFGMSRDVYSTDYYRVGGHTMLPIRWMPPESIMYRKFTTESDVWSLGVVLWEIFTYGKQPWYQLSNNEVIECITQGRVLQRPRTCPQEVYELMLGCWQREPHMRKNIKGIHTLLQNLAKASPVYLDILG

382 unique human kinases [3] = molecular target: T3, 382 unique human kinases (Homo sapiens, UniProt P80192); details: MLK1/MAP3K9, 10 uM; for remaining activity at 10 µM: read-out: % Enzyme Activity (relative to DMSO controls)
T3 construct: purchased Reaction Biology (HotSpot contract assay)
T3 sequence (P80192 whole entry): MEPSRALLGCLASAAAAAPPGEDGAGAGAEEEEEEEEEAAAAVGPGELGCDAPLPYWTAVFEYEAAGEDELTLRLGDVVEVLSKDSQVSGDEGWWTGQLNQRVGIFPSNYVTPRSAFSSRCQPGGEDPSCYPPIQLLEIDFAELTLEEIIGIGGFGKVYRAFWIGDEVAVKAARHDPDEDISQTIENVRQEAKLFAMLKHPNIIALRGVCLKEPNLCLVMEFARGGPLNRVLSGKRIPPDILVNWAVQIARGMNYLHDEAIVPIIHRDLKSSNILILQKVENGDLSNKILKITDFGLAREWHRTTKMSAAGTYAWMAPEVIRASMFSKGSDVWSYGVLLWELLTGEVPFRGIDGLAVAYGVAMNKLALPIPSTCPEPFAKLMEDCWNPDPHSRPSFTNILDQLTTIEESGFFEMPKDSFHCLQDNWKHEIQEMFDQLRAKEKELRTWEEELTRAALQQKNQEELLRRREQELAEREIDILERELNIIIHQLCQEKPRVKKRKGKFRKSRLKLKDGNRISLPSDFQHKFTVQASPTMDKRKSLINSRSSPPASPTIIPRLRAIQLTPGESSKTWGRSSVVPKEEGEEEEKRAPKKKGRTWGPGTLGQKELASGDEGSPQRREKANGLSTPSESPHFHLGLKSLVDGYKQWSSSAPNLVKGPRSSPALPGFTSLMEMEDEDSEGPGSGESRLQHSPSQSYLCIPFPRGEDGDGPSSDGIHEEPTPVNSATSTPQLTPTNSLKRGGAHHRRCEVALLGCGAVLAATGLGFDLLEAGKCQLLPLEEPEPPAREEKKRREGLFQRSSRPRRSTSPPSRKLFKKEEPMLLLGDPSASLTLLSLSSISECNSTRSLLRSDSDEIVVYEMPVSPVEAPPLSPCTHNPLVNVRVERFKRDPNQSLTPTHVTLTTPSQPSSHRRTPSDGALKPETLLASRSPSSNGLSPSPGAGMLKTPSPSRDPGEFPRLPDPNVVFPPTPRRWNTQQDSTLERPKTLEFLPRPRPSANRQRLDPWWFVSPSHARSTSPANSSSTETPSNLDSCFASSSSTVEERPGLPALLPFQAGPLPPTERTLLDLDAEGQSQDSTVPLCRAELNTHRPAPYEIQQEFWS

382 unique human kinases [4] = molecular target: T4, 382 unique human kinases (Homo sapiens, UniProt Q9UKI8); details: TLK1, 10 uM; for remaining activity at 10 µM: read-out: % Enzyme Activity (relative to DMSO controls)
T4 construct: purchased Reaction Biology (HotSpot contract assay)
T4 sequence (Q9UKI8 1-766): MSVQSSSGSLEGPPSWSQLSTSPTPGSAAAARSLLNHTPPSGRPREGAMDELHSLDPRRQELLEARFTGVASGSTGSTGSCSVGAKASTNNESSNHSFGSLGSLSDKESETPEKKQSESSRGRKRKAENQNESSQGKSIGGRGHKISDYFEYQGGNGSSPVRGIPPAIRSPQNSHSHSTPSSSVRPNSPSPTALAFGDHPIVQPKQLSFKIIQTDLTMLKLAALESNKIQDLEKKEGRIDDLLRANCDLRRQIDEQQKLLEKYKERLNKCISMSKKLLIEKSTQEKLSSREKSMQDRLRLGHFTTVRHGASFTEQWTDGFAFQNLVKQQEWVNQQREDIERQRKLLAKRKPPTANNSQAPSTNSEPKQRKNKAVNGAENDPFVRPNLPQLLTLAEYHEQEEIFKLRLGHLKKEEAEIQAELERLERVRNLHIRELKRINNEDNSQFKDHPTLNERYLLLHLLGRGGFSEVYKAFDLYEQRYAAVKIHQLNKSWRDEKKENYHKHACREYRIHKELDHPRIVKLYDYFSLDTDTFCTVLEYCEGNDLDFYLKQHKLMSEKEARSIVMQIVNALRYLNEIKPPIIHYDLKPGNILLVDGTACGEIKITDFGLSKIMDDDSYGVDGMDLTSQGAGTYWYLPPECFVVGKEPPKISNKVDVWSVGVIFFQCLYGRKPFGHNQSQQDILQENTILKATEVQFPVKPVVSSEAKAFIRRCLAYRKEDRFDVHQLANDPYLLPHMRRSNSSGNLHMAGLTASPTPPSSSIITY

382 unique human kinases [5] = molecular target: T5, 382 unique human kinases (Homo sapiens, UniProt Q6XUX3); details: RIPK5, 10 uM; for remaining activity at 10 µM: read-out: % Enzyme Activity (relative to DMSO controls)
T5 construct: purchased Reaction Biology (HotSpot contract assay)
T5 sequence (Q6XUX3 1-929): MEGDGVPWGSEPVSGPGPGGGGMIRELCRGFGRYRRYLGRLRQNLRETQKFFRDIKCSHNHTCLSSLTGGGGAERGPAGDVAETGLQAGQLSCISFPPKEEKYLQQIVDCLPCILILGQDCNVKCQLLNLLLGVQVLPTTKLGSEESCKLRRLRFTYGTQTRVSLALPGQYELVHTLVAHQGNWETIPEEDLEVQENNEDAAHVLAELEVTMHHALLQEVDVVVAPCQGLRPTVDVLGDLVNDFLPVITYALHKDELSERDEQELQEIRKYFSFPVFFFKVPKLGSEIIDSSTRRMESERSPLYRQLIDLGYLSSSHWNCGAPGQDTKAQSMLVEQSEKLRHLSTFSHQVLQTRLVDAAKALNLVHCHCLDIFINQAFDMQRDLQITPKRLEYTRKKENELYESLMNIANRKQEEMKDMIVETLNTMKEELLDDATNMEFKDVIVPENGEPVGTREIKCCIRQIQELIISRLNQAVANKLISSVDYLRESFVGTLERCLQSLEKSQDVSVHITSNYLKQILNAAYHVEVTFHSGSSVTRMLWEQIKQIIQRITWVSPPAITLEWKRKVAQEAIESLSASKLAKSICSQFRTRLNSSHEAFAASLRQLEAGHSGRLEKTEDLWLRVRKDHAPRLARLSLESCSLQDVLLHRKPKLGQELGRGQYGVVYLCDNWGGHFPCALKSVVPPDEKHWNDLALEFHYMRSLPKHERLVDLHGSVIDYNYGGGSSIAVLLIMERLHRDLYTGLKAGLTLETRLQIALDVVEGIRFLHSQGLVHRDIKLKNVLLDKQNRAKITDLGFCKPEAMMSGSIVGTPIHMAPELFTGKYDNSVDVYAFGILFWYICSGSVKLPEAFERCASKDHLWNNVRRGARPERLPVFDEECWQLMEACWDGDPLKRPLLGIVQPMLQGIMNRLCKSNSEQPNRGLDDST

382 unique human kinases [6] = molecular target: T6, 382 unique human kinases (Homo sapiens, UniProt Q9P0L2); details: MARK1, compound at 10 uM, duplicate values; for remaining activity at 10 µM: read-out: % Enzyme Activity (relative to DMSO controls)
T6 construct: purchased Reaction Biology (HotSpot contract assay)
T6 sequence (Q9P0L2 whole entry): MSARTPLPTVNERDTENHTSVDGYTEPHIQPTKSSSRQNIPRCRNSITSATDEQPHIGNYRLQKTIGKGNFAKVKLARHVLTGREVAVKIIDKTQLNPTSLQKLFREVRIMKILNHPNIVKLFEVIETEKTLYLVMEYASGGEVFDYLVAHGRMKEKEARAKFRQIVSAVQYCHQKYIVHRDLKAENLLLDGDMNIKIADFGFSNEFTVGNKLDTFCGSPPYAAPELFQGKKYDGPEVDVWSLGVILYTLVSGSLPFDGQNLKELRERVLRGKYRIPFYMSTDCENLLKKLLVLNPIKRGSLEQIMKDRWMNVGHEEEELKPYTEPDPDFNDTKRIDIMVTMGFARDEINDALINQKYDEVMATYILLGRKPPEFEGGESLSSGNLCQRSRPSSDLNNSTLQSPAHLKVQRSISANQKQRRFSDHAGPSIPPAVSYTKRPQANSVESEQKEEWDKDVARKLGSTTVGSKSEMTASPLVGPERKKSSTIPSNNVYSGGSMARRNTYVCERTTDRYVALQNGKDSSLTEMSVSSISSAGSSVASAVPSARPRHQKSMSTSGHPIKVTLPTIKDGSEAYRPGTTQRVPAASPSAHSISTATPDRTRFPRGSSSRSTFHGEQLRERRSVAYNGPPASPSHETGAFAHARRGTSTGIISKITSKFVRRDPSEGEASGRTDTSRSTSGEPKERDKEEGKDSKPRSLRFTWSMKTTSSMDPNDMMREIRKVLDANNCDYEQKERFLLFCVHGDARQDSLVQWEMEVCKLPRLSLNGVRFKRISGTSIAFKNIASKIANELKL

382 unique human kinases [7] = molecular target: T7, 382 unique human kinases (Homo sapiens, UniProt Q92630); details: DYRK2, 10 uM; for remaining activity at 10 µM: read-out: % Enzyme Activity (relative to DMSO controls)
T7 construct: purchased Reaction Biology (HotSpot contract assay)
T7 sequence (Q92630 1-601): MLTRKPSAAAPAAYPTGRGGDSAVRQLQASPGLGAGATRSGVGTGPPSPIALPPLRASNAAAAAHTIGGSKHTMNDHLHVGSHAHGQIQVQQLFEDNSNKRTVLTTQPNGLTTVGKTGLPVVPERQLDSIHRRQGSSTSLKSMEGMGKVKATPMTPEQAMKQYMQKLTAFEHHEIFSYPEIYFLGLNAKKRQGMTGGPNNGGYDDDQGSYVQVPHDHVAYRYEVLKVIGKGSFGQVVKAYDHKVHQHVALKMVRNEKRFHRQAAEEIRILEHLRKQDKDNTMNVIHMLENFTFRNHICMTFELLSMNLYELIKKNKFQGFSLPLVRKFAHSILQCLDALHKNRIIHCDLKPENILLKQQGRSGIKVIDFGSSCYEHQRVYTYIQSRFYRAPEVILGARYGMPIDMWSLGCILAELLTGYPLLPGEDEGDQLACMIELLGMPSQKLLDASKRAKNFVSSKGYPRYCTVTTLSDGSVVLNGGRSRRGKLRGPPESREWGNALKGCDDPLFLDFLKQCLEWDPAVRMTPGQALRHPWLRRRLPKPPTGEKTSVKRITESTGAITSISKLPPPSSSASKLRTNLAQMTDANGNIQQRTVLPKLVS

SMILES | % Enzyme Activity (relative to DMSO controls) (382 unique human kinases [1]) | remaining activity at 10 µM (382 unique human kinases [1]) | % Enzyme Activity (relative to DMSO controls) (382 unique human kinases [2]) | remaining activity at 10 µM (382 unique human kinases [2]) | % Enzyme Activity (relative to DMSO controls) (382 unique human kinases [3]) | remaining activity at 10 µM (382 unique human kinases [3]) | remaining activity at 10 µM (382 unique human kinases [4]) | remaining activity at 10 µM (382 unique human kinases [5]) | remaining activity at 10 µM (382 unique human kinases [6]) | remaining activity at 10 µM (382 unique human kinases [7]) | % Enzyme Activity (relative to DMSO controls) (382 unique human kinases [4]) | % Enzyme Activity (relative to DMSO controls) (382 unique human kinases [5]) | % Enzyme Activity (relative to DMSO controls) (382 unique human kinases [6]) | % Enzyme Activity (relative to DMSO controls) (382 unique human kinases [7])
CCNC(=O)c1noc(-c2cc(C(C)C)c(O)cc2O)c1-c1ccc(CN2CCOCC2)cc1 [Luminespib] | 100.64% | 101% | 97.46% | 98.1% | 102.58% | 103% |  |  |  |  |  |  |  | 
CC(C)c1cc(-c2n[nH]c(=O)n2-c2ccc3c(ccn3C)c2)c(O)cc1O [Ganetespib (STA9090)] |  |  |  |  |  |  | 65.8% | 95.4% | 112% | 75% |  |  |  | 
CCNC(=O)c1noc(-c2cc(C(C)C)c(O)cc2O)c1-c1ccc(CN2CCOCC2)cc1 [Luminespib (AUY-922)] |  |  |  |  |  |  | 86.2% | 79.8% | 110% | 99.7% | 84.15% | 77.60% | 104.63% | 98.38%
CC(C)c1cc(-c2n[nH]c(=O)n2-c2ccc3c(ccn3C)c2)c(O)cc1O [Ganetespib] |  | 46.7% |  | 21.5% |  | 92.1% |  |  |  |  |  |  |  | 
